Data as given in article PMC11679574, “Intestinal Cells-on-Chip for Permeability Studies” (Micromachines, 2024).
Where two headings read alike, the source gives them in different places.

Key:
[1] = test system: enteroid monolayers; test: in vitro
Experimental: (§1) Leakage to the basolateral medium was determined using the BioTek Synergy H1 microplate reader (BioSPX, Abcoude, The Netherlands). […] Apparent permeability values (Papp) were calculated according to Equation (1):(1) Papp=dQ/dt×(1/A×C0) in which dQ/dt is the amount of drug transported over the barrier (ng/sec), A is the exposed area of the cell monolayer (cm^2) and C0 is the initial dose concentration of the compound (ng/mL). All measurements were performed under flow (17 µL/min), and the chip system was inside a cell culture incubator (37 °C, 5%CO2) during the entire experiment, as described in Section 2.6.
(§2) Apical and basolateral medium reservoirs were sampled at t = 0, 1, 2 and 4 h. All measurements were performed under flow (17 µL/min), and the chip system was inside a cell culture incubator (37 °C, 5% CO2) during the entire experiment, as described in Section 2.6.
(§3) For specific inhibition, 5 µM elacridar and 5 µM ketoconazole (both Sigma-Aldrich, Zwijndrecht, The Netherlands) were used. The drug cocktail was added to the apical medium reservoirs of chip experiments (flow) and the apical insert of static Transwell inserts. Inhibitors were added to both apical dose solution and basolateral transport buffer. During experiments, samples were collected at different timepoints from both apical and basolateral medium reservoirs, mixed with equal volume of ultrapure MeOH and stored at −20 °C until analysis by LC-MS/MS.
(§4) For quantification, a standard of parental compounds and metabolites was prepared in the same medium as samples. Metabolites included were 1’-hydroxymidazolam (Sigma-Aldrich) and 7-hydroxycoumarin glucuronide (LGC Standards, OLY, UK). Both standard and samples were centrifuged for 10 min at 1500× g to precipitate protein, and subsequently, 1 µL was injected. […] A limit of quantification (LOQ) was determined for each compound based on the standard curve and a limit of detection (LOD) was determined based on a noise signal. For each experiment, corresponding dose and blanks were included in measurements. Recovery was calculated as the percentage of original dose added to the system.
(§5) All static control experiments were performed in cell monolayers cultured on transparent Transwell inserts (Corning, Life Sciences BV, Amsterdam, The Netherlands). Procedures for seeding and culturing were exactly the same as previously reported. […] The only difference was in the volume of apical (100 µL) and basolateral (600 µL) compartment, which was accounted for in Papp calculations. All measurements were performed inside a cell culture incubator (37 °C, 5% CO2).

[2] = in vitro; conditions: human
Experimental: as §1, §2, §3, §4, §5

[3] = test system: enteroid monolayers; test: Permeability in cell-on-chip system under laminar flow, enteroid monolayers
Experimental: (§6) To add the culture disc with cells into the system, it was transferred to a biosafety cabinet, the chips were opened from the top and the discs were added to the chip, after which they were closed using a twisting cap mechanism. Sufficient medium was added to the chip to ensure no air bubbles were trapped during this procedure. Flow speed was adjusted to 17 µL/min and the system was placed back into a cell culture incubator (37 °C, 5% CO2). After a short period of equilibration, transport medium (with/without compound of interest) was added to apical and basolateral reservoirs, with the basolateral medium containing 4% BSA. The medium volumes in the reservoirs depended on the duration of the experiment and the sample volumes required but were between 5 and 6.5 mL. To completely replace the medium inside the tubing and chip with fresh transport medium, the system was run without medium recirculation for 30 min prior to the start of measurements. Details on the permeability measurements are described below.
as §1, §2, §3
(§7) For quantification, a standard of parental compounds and metabolites was prepared in the same medium as samples. […] A limit of quantification (LOQ) was determined for each compound based on the standard curve and a limit of detection (LOD) was determined based on a noise signal. […] Recovery was calculated as the percentage of original dose added to the system.

[4] = as above; conditions: human
Experimental: as §6, §1, §2, §3, §7

[5] = test system: Caco-2 monolayers; test: Permeability in static Transwell inserts, Caco-2 monolayers; type: in vitro ADME, human; conditions: static culture, intact Caco-2 monolayer
Experimental: Leakage to the basolateral medium was determined using the BioTek Synergy H1 microplate reader (BioSPX, Abcoude, The Netherlands). FD4 was measured with an excitation/emission wavelength of 485 nm and 528 nm, and CB was measured at 365 nm and 412 nm, respectively. Apparent permeability values (Papp) were calculated according to Equation (1):(1) Papp=dQ/dt×(1/A×C0) in which dQ/dt is the amount of drug transported over the barrier (ng/sec), A is the exposed area of the cell monolayer (cm^2) and C0 is the initial dose concentration of the compound (ng/mL).
All static control experiments were performed in cell monolayers cultured on transparent Transwell inserts (Corning, Life Sciences BV, Amsterdam, The Netherlands). […] The only difference was in the volume of apical (100 µL) and basolateral (600 µL) compartment, which was accounted for in Papp calculations. All measurements were performed inside a cell culture incubator (37 °C, 5% CO2).

[6] = no reference given; cited from earlier work
[7] = Compound recovery, cell-on-chip system; type: in vitro ADME; conditions: human, read-out: Recovery, percentage of original dose
[8] = target: CYP3A4 (Homo sapiens, UniProt P08684); test: Phase I metabolism of midazolam in enteroid monolayers, static Transwell; conditions: enteroids, static Transwell cultures
Sequence of CYP3A4 (P08684 whole entry): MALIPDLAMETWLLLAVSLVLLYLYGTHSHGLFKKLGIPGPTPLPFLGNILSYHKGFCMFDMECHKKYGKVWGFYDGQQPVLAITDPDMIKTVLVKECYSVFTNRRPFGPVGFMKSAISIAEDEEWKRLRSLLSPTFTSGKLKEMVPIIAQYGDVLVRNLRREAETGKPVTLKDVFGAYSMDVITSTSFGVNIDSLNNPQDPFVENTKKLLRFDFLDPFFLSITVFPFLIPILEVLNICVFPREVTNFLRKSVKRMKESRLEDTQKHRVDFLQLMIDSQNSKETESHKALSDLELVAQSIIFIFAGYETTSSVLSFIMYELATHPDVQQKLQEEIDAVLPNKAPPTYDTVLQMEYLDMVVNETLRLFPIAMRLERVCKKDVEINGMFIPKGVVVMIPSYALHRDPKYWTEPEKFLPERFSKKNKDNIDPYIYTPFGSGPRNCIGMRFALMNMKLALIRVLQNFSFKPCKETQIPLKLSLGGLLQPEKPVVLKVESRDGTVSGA
Experimental: as §3, §4
(§8) All static control experiments were performed in cell monolayers cultured on transparent Transwell inserts (Corning, Life Sciences BV, Amsterdam, The Netherlands). […]

[9] = test system: glucuronosyltransferases (UGTs); test: Phase II metabolism of 7-hydroxycoumarin in enteroid monolayers, chip system; type: in vitro ADME, human; conditions: enteroids, 12 µM
Experimental: as §6, with “below. […]” for “below.”
as §7

[10] = test system: glucuronosyltransferases (UGTs); test: Phase II metabolism of 7-hydroxycoumarin in enteroid monolayers, static Transwell; type: in vitro ADME, human; conditions: enteroids, 12 µM
Experimental: as §3, §4, §8

## CC(C)c1nc(N(C)S(C)(=O)=O)nc(-c2ccc(F)cc2)c1/C=C/[C@@H](O)C[C@@H](O)CC(=O)O [Rosuvastatin, rosuvastatin]
[1]
  Papp (in words): low
[2]
  Papp A→B: 0.7 ×10⁻⁶ cm/s
[3]; enteroids, chip experiments, drug cocktail, 10 µM
  Papp (in words): low
[4]
  Papp A→B: 1.11 ×10⁻⁶ cm/s

## CN(C)C(=N)N=C(N)N [Metformin, metformin]
[2]
  Papp A→B: 1.44 ×10⁻⁶ cm/s
[4]
  Papp A→B: 4.6 ×10⁻⁶ cm/s

## Cascade Blue [CB]
[5]
  Papp: 0.5 ·10^−6 cm/s
[1]; static culture, intact enteroid monolayer
  Papp: 0.08 ·10^−6 cm/s
[3]; chip system, overall over cell types and membranes
  Overall permeation compared to FD4: approximately 2 fold

## CC(C)NCC(O)COc1ccc(CC(N)=O)cc1 (stereo not drawn) [Atenolol, atenolol]
[6]
  fraction absorbed (Fa): 50%

## Dextran-FITC 4 kDa [FD4]
[1]
  Papp A to B, Static: 0.01 ×10⁻⁶ cm/s

## Cc1ncc2n1-c1ccc(Cl)cc1C(c1ccccc1F)=NC2 [Midazolam, midazolam]
[7]; chips containing translucent membranes
  recovery at 10 µM: 41%
[7]; chips with transparent membranes
  recovery at 10 µM: 11%
[8]; in the presence of ketoconazole 5 µM
  OH-midazolam formation: absent
[8]; midazolam 10 µM
  OH-midazolam formation: increase in OH-midazolam over time

## O=c1ccc2ccc(O)cc2o1 [7OH-coumarin, 7-hydroxycoumarin]
[9]
  7-hydroxycoumarin glucuronide formation: confirm UGT activity
[10]
  7-hydroxycoumarin glucuronide formation: confirm UGT activity

## Cc1cc(=O)n(-c2ccccc2)n1C [Antipyrine, antipyrine]
[6]
  fraction absorbed (Fa): 100%
